Data taken from patent US20080199897A1, “CLASS II HISTONE DEACETYLASE WHOLE CELL ENZYME ASSAY” (MethylGene Inc., priority 2007, published 2008).
Counter-ions that a name gives are not always drawn. Like-named read-outs stand apart in the source and are kept apart here.

Key:
[1] = tested on: CD-1 mouse whole blood cells; assay: deacetylase activity in serum from mouse whole blood contacted with substrate; assay type: cell-based; conditions: 300 uM substrate
Procedure: CD-1 Mouse blood was collected in heparin tubes and cells were counted by Coulter counter (Beckman Coulter, Ville St. Laurent, Quebec). The amount of whole blood containing 1.6×10E6 white blood cells was aliquoted and the volume was brought up to 200 ul with RPMI (+10% FBS). Boc-Ac-Lys-AMC was added to a final concentration of 300 uM. After various amounts of time, the mix was spun (400×g for 5 min), and 50 ul of the supernatant (serum) was transferred to a 96-well plate. The amount of deacetylated product Boc-Lys-AMC present in the supernatant was detected by adding an equal volume of the developer mix and reading after 15 minutes incubation. […] Thus total HDAC activity in primary cells could be easily monitored in bodily fluid where animals were contacted with HDAC substrates ex vivo.

Jurkat T = assay: whole cell deacetylase assay with Boc-Lys(Ac)-AMC in Jurkat T cells; conditions: read-out: whole cell deacetylase IC50, Jurkat T
Procedure: (§2) Freshly trypsinized cells were dispensed into 96-well black Costar E1A/RIA plates (Corning Inc., Corning, N.Y.). Small molecule substrate Boc-Lys(Ac)-AMC (Bachem Biosciences Inc., King of Prussia, Philadelphia) was added to cell suspension with the final concentration of 300 uM. Cells were placed in 37° C. incubator with 5% CO2 for 90 minutes. […] With the presence of 1% NP-40, both excellular and intracellular HDAC activity was measured in cultured cells altogether. Fluorescence was developed for 15 minutes at 37 C and read in a fluorometer (SPECTRAMAX GeminiXS, Molecular Devices, Sunnylvale, Calif.) with an excitation wavelength at 360 nm, emission at 470 nm, and a cutoff of 435 nm.

[2] = tested on: total HDAC activity in human white blood cells; assay: ex vivo inhibition of whole cell HDAC activity in human white blood cells; assay type: cell-based; conditions: 16 hours incubation; Boc-Lys(ac)-AMC substrate
Procedure: Whole blood (human or mouse) was centrifuged at 2500 rpm for 10 minutes at ambient temperature in a Sorvall RT-7 centrifuge (Mandel Scientific Co., Guelph, Ontario). Plasma was removed and buffy coat was collected. Five volumes of Erythrocyte Lysis Buffer (EL) (Qiagen Canada Inc., Mississauga, Ontario) were added to buffy coat. Buffy coat was incubated on ice for 20 minutes before it was centrifuged at 400 g for 10 minutes at 4° C. Supernatant was removed and buffy coat was washed twice with EL buffer and re-centrifugation. Buffy coat was resuspended in RPMI media and cells (white blood cells) were counted with trypan blue exclusion. White blood cells were plated into 96-well dish in RPMI plus 10% fetal bovine serum. HDAC small molecule substrate Boc-Lys(ac)-AMC was added to cell suspensions and incubated with cells for 90 minutes at 37° C. before reaction was stopped, and fluorescence was developed and read.
Human white blood cells (buffy coat) isolated from human donors were plated into 96-well dish in RPMI plus 10% fetal bovine serum. HDAC inhibitors with a range of dilutions were incubated with cells for 16 hours at 37 C with 5% CO2. HDAC small molecule substrate Boc-Lys(ac)-AMC was added into cell suspensions and incubated with cells for 90 minutes before reaction was stopped, and fluorescence was developed and read.

A549 = assay: whole cell deacetylase assay with Boc-Lys(Ac)-AMC in A549 cells
Procedure: as §2

293T = assay: whole cell deacetylase assay with Boc-Lys(Ac)-AMC in 293T cells; conditions: read-out: whole cell deacetylase IC50, 293T
Procedure: as §2

HCT116 = assay: whole cell deacetylase assay with Boc-Lys(Ac)-AMC in HCT116 cells
Procedure: as §2

Du145 = assay: whole cell deacetylase assay with Boc-Lys(Ac)-AMC in Du145 cells
Procedure: as §2

[3] = tested on: Class I and Class II HDACs; assay: enzymatic reactivity of substrates for Class I and Class II HDACs; assay type: biochemical; conditions: FIG. 12 legend
Procedure: (§1) A 30 mM stock of Boc-Lys(TFA)-AMC substrate was prepared in DMSO. 2 μl test compound in DMSO was diluted in 50 μl buffer (25 mM HEPES, pH 8.0, 137 mM NaCl, 2.7 mM KCl, 1 mM MgCl2, 0.1% BSA) and pre-incubated with Class II HDAC enzyme (30 μl of a final enzyme concentration of 0.1-0.2 nM) for 10 minutes at room temperature. Reaction was started by adding 18 μl Boc-Lys(TFA)-AMC substrate and incubating at 37° C. for 20-30 minutes. The reaction was stopped by adding 50 μl trypsin (1 mg/ml) and a known HDAC inhibitor. The plate was then incubated in the dark for 20 minutes at room temperature and read with Ex=360 nm, Em=470 nm, cutoff filter at 435 nm.
as §1, with “of Boc-Lys(thioAc)-AMC” for “of Boc-Lys(TFA)-AMC”, “in 15” for “in 50”, “enzyme (15” for “enzyme (30”, “of 50-500” for “of 0.1-0.2”, “μl Boc-Lys(thioAc)-AMC” for “μl Boc-Lys(TFA)-AMC”, “for 30-60” for “for 20-30”

Panc-1 = assay: whole cell deacetylase assay with Boc-Lys(Ac)-AMC in Panc-1 cells; conditions: read-out: whole cell deacetylase IC50, Panc-1, pre-incubated with inhibitor 16 hours, Boc-Lys(Ac)-AMC substrate, mean of at least 2 experiments
Procedure: as §2

293T cells = assay: intracellular and excellular deacetylase activity of 293T cells; assay type: cell-based, human; conditions: 300 uM substrate
Procedure: Freshly trypsinized cells (293T) were dispensed into 96-well black Costar E1A/RIA plates (Corning Inc., Corning, N.Y.). Small molecule substrate Boc-Lys(Ac)-AMC (Bachem Biosciences Inc., King of Prussia, Philadelphia) were added to cell suspension with the final concentration of 300 uM. Cells were placed in 37° C. incubator with 5% CO2 for indicated time period. Supernatant was collected if necessary and subject to spinning. Reaction was stopped by adding a freshly prepared Fluor-de-Lys™ developer (Biomol, Plymouth Meeting, Philadelphia) with 1 uM TSA (Biomol, Plymouth Meeting, Philadelphia) in assay buffer (25 mM Tris, HCl pH8.0, 137 mM NaCl, 2.7 mM KCl, 1 mM MgCl2) plus 1% NP-40 into supernatant or cell pellets. Fluorescence was developed for 15 minutes at 37° C. and read in a fluorometer (SPECTRAMAX GeminiXS, Molecular Devices, Sunnylvale, Calif.) with an excitation wavelength at 360 nm, emission at 470 nm, and a cutoff of 435 nm. […] In contrast, when there is no substrates added, neither supernatant from cultured cells nor cell pellets have HDAC activity.

Cc1cc(=O)oc2cc(NC(=O)[C@H](CCCCN)NC(=O)OC(C)(C)C)ccc12 [Boc-Lys-AMC]
cell permeability [1]: permeable to come out from cells

O=C(/C=C/c1ccc(CN(CCO)CCc2c[nH]c3ccccc23)cc1)NO [LAQ-824]
IC50 (Jurkat T; Homo sapiens, Jurkat): 40 nM | inhibition of whole cell HDAC activity in human white blood cells [2]: dose-dependent inhibition | IC50 (A549; Homo sapiens, A549, read-out: whole cell deacetylase IC50, A549): 20 nM | IC50 (293T; Homo sapiens, HEK-293T): 40 nM | IC50 (HCT116; Homo sapiens, HCT-116, read-out: whole cell deacetylase IC50, HCT116): 60 nM | IC50 (Du145; Homo sapiens, DU-145, read-out: whole cell deacetylase IC50, Du145): 50 nM

CC(=S)NCCCCC(NC(=O)OC(C)(C)C)C(=O)Nc1ccc2c(C)cc(=O)oc2c1 (stereo not shown) [Boc-Lys(thioAc)-AMC]
HDAC class specificity of substrate [3]: specific for Class II HDACs

CC(=O)O[C@H]1C(=O)[C@@]2(C)[C@H]([C@H](OC(=O)c3ccccc3)[C@]3(O)C[C@H](OC(=O)[C@H](O)[C@@H](NC(=O)c4ccccc4)c4ccccc4)C(C)=C1C3(C)C)[C@]1(OC(C)=O)CO[C@@H]1C[C@@H]2O [Taxol]
IC50 (293T; Homo sapiens, HEK-293T): > 50000 nM

Cc1cc(=O)oc2cc(NC(=O)[C@H](CCCCNC(=O)C(F)(F)F)NC(=O)OC(C)(C)C)ccc12 [Boc-Lys(Tfa)-AMC]
HDAC class specificity of substrate [3]: specific for Class II HDACs

Nc1ccccc1NC(=O)c1ccc(CNC(=O)OCc2cccnc2)cc1 [MS-275]
IC50 (Jurkat T; Jurkat T cells, pre-incubated with inhibitor 16 hours, Boc-Lys(Ac)-AMC substrate, mean of at least 2 experiments): 300 nM | IC50 (Panc-1): 500 nM | IC50 (A549; read-out: whole cell deacetylase IC50, A549, A549 cells, pre-incubated with inhibitor 16 hours, Boc-Lys(Ac)-AMC substrate, mean of at least 2 experiments): 400 nM | IC50 (293T; 293T cells, pre-incubated with inhibitor 16 hours, Boc-Lys(Ac)-AMC substrate, mean of at least 2 experiments): 2000 nM | IC50 (HCT116; read-out: whole cell deacetylase IC50, HCT116, HCT116 cells, pre-incubated with inhibitor 16 hours, Boc-Lys(Ac)-AMC substrate, mean of at least 2 experiments): 3000 nM | IC50 (Du145; read-out: whole cell deacetylase IC50, Du145, Du145 cells, pre-incubated with inhibitor 16 hours, Boc-Lys(Ac)-AMC substrate, mean of at least 2 experiments): 300 nM

CC(=O)NCCCC[C@H](NC(=O)OC(C)(C)C)C(=O)Nc1ccc2c(C)cc(=O)oc2c1 [Boc-Lys(Ac)-AMC]
cell permeability [1]: permeable to go inside cells | HDAC class specificity of substrate [3]: specific for Class I HDACs, especially HDAC1, HDAC2 and HDAC6 | cell permeability (293T cells): could permeablize into cells
